Reference: BindingDB's records for patent US20240025899 (Shanghai De Novo Pharmatech, 2024)

Target: T1, Serine/threonine-protein kinase ATR [14-953] (Homo sapiens, UniProt Q13535)
T1 construct: 14-953
Assay: ATR Enzyme Assay
Protocol: In this experiment, the phosphorylation level of substrate protein P53 (Eurofins, 14-952) was detected by HTRF technology to measure the activity of ATR/ATRIP (Eurofins, 14-953) kinase. Reaction buffer (25 mM HEPES pH 8.0, 0.01% Brij-35, 1% Glycerol, 5 mM DTT, 1 mg/mL BSA), termination buffer (12.5 mM HEPES pH 8.0, 0.005% Brij-35, 0.5% Glycerol, 250 mM EDTA) and assay buffer (50 mM HEPES pH 7.0, 150 mM NaCl, 267 mM KF, 0.1% sodium cholate, 0.01% Tween 20) were prepared in advance. ATR/ATRIP was diluted with reaction buffer to a working solution of 2 ng/μL, and the substrate protein P53 was diluted with reaction buffer to a working solution of 80 nM, and […] (Sigma, A2383) working solution (containing 40 mM MnCl2) was prepared with reaction buffer. The compound was 3-fold diluted with DMSO, then diluted with reaction buffer into a working solution, then added to a 384-well plate at 2.5 μL/well, and centrifuged at 1500 rpm for 40 s. Then 2.5 μL of ATR/ATRIP working solution, P53 working solution and ATP working solution were added into the 384-well plate, centrifuged at 1500 rpm for 40 s and reacted at room temperature for 30 minutes.

T1 sequence (Q13535 14-953): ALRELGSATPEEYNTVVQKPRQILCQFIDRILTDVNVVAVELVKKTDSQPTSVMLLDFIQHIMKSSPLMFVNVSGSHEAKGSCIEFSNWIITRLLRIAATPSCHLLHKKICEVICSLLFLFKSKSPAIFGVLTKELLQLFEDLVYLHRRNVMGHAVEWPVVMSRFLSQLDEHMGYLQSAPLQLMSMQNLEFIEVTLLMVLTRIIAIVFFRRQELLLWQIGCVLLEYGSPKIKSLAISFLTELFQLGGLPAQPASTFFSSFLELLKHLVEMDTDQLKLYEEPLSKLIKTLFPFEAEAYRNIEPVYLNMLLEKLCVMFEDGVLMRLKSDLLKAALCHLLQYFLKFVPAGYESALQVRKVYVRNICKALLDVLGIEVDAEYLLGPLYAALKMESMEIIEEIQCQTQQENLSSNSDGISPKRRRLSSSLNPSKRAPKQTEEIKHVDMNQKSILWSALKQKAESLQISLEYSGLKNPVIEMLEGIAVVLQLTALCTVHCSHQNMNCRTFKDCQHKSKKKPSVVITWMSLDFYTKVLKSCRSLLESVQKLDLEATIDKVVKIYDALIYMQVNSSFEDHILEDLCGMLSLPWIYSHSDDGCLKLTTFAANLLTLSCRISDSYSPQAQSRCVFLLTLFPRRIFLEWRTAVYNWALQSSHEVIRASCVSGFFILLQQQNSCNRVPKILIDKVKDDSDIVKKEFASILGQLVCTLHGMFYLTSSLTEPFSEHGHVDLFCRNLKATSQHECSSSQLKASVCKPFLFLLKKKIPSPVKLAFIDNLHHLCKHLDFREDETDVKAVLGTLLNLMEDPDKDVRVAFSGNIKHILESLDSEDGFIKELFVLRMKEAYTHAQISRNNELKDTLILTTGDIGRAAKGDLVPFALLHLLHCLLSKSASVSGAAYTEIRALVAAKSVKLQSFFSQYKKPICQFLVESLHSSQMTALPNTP

IC50 | SMILES
6.5 nM | C[C@@H]1COCCN1c1nc2c(cnn2-c2cc[nH]n2)c2c1CCN2S(N)(=O)=O [US20240025899, Compound 5]
14 nM | C[C@@H]1COCCN1c1nc2c(cnn2-c2cc[nH]n2)c2c1CCN2C [US20240025899, Compound 12]
